In one assay the target is T1, MSH3 (human MutSbeta) (Homo sapiens, UniProt P20585).
T1 construct: Msh3(1-1137), Gene ID J04810.1
Put plainly: ATP binding and cross-linking assay (MSH3 subunit). The note with it: [32P]-ATP UV cross-linking to MSH3 subunit of MutSbeta; read-out: cross-link assay IC50 MSH3. On the procedure:
ATP binding and cross-linking assay: Enzyme human MutSbeta (Msh2(1-934), Gene ID NP_000242.1, Msh3(1-1137), Gene ID J04810.1) was adjusted to 0.2 μM and, in experiments in the presence of 22 bp biotin-labeled DNA containing a GT-mismatch (purchased from Curia Global, TOP 5′-[…]-3′; BOT 3′-AGTAGCTAGGC - - - CGAAGTCTACC-5′-Biotin), pre-incubated with DNA at equimolar concentration for indicated time and temperature. All reagents were kept on ice. Enzyme was then incubated on ice for the indicated time with 5 nM γ-[^32P]-ATP (Hartmann Analytic, FP-301) or α-[^32P]-ATP (Perkin Elmer, NEG003H250UCSBF4 or Hartmann Analytic, FP-207) and addition of cold ATP (10 μM) or ADP (0.3 μM). The total volume was 20 μL and the samples were handled in Eppendorf reaction tubes. The assay buffer was 25 mM HEPES pH=7.5, 150 mM KCl, 5 mM MgCl2, 5 mM GSH, 0.01% Tween-20. All steps with radioactive ATP were conducted behind appropriate shielding. The samples were then placed on dry ice until they were frozen solid. […] The screen was analyzed in the imager (GE Healthcare, Fluorescent Image Analyzer, Typhoon FLA 7000, #5622514B), and the image was analyzed with imageJ software.

Assay [1] is described as follows: P33 SPA counter assay (absence of enzyme). The settings on record: interference with detection system. On the procedure:
P33 SPA counter assay: This assay was used in the absence of enzyme to determine whether the test compound interferes with the detection system. Otherwise, the same protocol and assay buffer as in the main SPA assay were applied (25 mM HEPES pH=7.5, 150 mM KCl, 2 mM MgCl2, 2 mM GSH, 0.01% Tween-20) and instead of enzyme addition, assay buffer was added. Hydrolysis of substrate (γ-[^33P]-ATP, 0.1 nM; Hartmann Analytic, FF-301; and cold ATP, 10 μM) to a similar level as under enzymatic conditions was achieved by incubation at 50° C. for 4 days. Decay of [^33P] with a half-life of 25.4 days was corrected by increasing the concentration of the labelled nucleotide with the appropriate factor; all steps with radioactive ATP were conducted behind appropriate shielding. After addition of pre-treated ATP substrate (10 μL) to the compounds and addition of buffer (10 μL, instead of enzyme), 20 μL of a 1:2 mix of ammonium molybdate (20 mg/mL Ammonium molybdate in 2.4M HCl) and SPA beads (ProteinA SPA beads from Perkin Elmer Cat #RPNQ0019 at 7.5 mg/mL+1% azide) was added per well and incubated at RT for 2 min. Then, 40 μL of 7 M CsCl and 0.1 M citrate was added per well and incubated for 1 h at room temperature before measuring on the MicroBeta (top read mode, 1 min per well). For full plate processing, all reagents were transferred with a pipettor (Selma, CyBio) apart from the final reagent (CsCl+citrate) which was added with a dispenser (MultiFlo, BioTek). Data analysis during assay development was done with Prism GraphPad, and IC50 fitting for whole compound plates was done with the in-house software Aplus.

pIC50: −log10 of the molar value.

T1 sequence (P20585 whole entry): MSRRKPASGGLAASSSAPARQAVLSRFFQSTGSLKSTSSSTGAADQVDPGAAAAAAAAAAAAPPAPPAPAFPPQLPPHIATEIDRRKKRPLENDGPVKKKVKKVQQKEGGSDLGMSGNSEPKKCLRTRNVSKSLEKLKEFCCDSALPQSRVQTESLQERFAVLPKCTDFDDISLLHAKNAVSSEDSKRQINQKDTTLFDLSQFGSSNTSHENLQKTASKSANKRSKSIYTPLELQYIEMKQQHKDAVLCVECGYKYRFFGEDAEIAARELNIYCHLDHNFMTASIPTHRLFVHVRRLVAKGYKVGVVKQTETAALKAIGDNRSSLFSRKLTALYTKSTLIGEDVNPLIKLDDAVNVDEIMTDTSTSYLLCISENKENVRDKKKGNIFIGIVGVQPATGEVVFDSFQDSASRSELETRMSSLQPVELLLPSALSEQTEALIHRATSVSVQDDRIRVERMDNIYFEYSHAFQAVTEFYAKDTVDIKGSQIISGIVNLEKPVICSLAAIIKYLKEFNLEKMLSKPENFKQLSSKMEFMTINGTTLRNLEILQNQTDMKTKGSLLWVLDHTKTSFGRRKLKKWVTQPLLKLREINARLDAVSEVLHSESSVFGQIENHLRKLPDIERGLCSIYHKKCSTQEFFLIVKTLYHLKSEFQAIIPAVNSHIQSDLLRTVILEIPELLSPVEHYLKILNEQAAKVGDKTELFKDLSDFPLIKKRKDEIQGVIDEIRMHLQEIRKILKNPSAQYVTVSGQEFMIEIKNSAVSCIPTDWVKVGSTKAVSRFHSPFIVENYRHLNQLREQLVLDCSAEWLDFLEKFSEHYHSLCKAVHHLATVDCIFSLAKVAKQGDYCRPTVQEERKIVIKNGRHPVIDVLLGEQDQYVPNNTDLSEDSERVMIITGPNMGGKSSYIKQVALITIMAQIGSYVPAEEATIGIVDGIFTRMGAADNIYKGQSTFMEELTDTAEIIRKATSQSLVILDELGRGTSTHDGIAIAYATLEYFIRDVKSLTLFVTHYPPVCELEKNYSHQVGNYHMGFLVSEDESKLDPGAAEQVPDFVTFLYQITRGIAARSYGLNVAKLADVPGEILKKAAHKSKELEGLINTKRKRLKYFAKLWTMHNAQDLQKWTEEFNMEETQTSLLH
T1 sequence (P43246 whole entry partner): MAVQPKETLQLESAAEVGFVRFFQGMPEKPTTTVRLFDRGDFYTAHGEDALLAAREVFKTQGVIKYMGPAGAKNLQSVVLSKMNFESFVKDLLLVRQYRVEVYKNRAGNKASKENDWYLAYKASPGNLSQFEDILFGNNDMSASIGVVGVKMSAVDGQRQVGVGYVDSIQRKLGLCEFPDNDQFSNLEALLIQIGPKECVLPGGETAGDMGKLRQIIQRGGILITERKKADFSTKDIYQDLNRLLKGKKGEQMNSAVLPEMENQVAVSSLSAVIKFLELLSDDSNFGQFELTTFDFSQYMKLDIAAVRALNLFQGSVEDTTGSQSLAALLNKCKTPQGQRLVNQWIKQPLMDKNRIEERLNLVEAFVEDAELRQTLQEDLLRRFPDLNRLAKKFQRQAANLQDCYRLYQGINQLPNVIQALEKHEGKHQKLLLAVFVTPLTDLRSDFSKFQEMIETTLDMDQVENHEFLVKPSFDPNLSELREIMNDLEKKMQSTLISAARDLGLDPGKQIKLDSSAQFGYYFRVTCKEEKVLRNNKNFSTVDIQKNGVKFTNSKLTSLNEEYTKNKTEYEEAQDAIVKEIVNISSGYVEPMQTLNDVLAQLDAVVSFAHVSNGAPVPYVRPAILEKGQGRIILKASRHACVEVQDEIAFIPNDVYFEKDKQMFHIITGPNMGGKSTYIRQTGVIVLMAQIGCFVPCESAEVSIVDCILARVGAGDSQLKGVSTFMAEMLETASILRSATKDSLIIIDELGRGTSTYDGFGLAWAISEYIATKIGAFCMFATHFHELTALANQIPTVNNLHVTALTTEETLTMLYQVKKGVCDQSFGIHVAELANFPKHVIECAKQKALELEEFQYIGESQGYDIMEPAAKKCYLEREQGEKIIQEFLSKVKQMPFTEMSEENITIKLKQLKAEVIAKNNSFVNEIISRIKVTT

For the compound `Cc1ccc(Nc2nc(N3CCN(C)CC3)nc3nccnc23)cc1C` [Compound 2, N-(3,4-dimethylphenyl)-2-(4-methylpiperazin-1-yl)pteridin-4-amine], the pIC50 was 5.30 at MSH3 (human MutSbeta) and under 3.70 in assay [1].
As for `CCN1CCN(c2nc(Nc3ccc(Cl)cc3)c3nccnc3n2)CC1` [Compound 4, N-(4-Chlorophenyl)-2-(4-ethylpiperazin-1-yl)pteridin-4-amine], the values for the pIC50 (on MSH3 (human MutSbeta); in assay [1]) were 5.05 and under 3.70, respectively.

The pIC50 is the negative decadic logarithm of the IC50, by convention in mol/L.

Source of the values: patent US20240199624A1, “COMPOUNDS, COMPOSITIONS, AND METHODS” (CHDI Foundation, Inc., priority 2022, published 2024).
